These are literature values, as cited in patent publication US11827664B2, “Biaryl amides with modified sugar groups for treatment of diseases associated with heat shock protein pathway” (REATA PHARMACEUTICALS, INC., priority 2018, dated 2023).

The term IC50 denotes the midpoint of a concentration-inhibition curve.

The target in data set [1] is Hsp90 C-terminus nucleotide binding pocket. The conditions noted are these: low affinity; Marcu, et al., 2000; cited from earlier work.
In data set [2] the test system is neurons. The note with it: in vitro; cited from earlier work.
The next data set deals with diabetic mice. The conditions noted are these: cited from earlier work.
Data set [3] has as its system neurons. The note with it: cited from earlier work.

Take `CO[C@@H]1[C@@H](OC(N)=O)[C@@H](O)[C@H](Oc2ccc3c(O)c(NC(=O)c4ccc(O)c(CC=C(C)C)c4)c(=O)oc3c2C)OC1(C)C` [novobiocin]: the IC50 in data set [1] was approximately 700 µM.

Regarding `CO[C@@H]1[C@@H](O)[C@@H](O)C(Oc2ccc(CCNC(C)=O)c(-c3cccc(F)c3)c2)OC1(C)C` (stereo partly drawn) [KU-596, N-(2-(5-(((3R,4S,5R)-3,4-dihydroxy-5-methoxy-6,6-dimethyltetra-hydro-2H-pyran-2-yl)oxy)-3′-fluoro-[1,1′-biphenyl]-2-yl)ethyl)-acetamide], the “protection of neurons from hyperglycemic conditions” value with neurons [2] is “protect neurons from hyperglycemic conditions in vitro”. Further, in the data set with diabetic mice, the “effect on symptoms of DPN / neuropathy in diabetic mice” value is “alleviate symptoms of neuropathy in diabetic mice”. Also, in the data set on neurons [3] (diabetic neurons), the “effect on expression of inflammatory markers” value is “reduce the expression of inflammatory markers in diabetic neurons”. For the same compound, in the data set on neurons [3] (neurons), the “effect on mitochondrial function / bioenergetics” value is reported as “improve impaired mitochondrial function in neurons”.
